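Grown in 96-well plates, cells were treated for 48 hours with each compound at five concentrations. Insufficient inhibition: endpoint recorded as highest concentration tested. Here, GI50 denotes the concentration required for 50% inhibition of growth.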 Active and inactive are the calls of the source. Rule as the data show it: active = GI50 up to about 1.1 µM and inactive = higher.
Tests used:
Experiment in all cases: NCI-60 cell line screen, 48 h
[1] = test system: A549
[2] = test system: BT-549
[3] = test system: HOP-18
[4] = test system: HT-29
[5] = test system: IGROV-1
[6] = test system: K562
[7] = test system: KM12
[8] = test system: LOX IMVI
[9] = test system: MOLT-4
[10] = test system: Malme-3M
[11] = test system: NCI-H226
[12] = test system: OVCAR-4
[13] = test system: RPMI-8226
[14] = test system: RXF 393
[15] = test system: SF-268
[16] = test system: SF-295
[17] = test system: SK-OV-3
[18] = test system: SW-620
[19] = test system: TK-10
[20] = test system: U-251

Structure (SMILES)	GI50 [1]	GI50 [2]	GI50 [3]	GI50 [4]	GI50 [5]	GI50 [6]	GI50 [7]	GI50 [8]	GI50 [9]	GI50 [10]	GI50 [11]	GI50 [12]	GI50 [13]	GI50 [14]	GI50 [15]	GI50 [16]	GI50 [17]	GI50 [18]	GI50 [19]	GI50 [20]
O=c1c2ccccc2n2nnc3ccc(NCCNCCO)c1c32	1.16 µM (inactive)	2.02 µM (inactive)	0.183 µM (active)	0.74 µM (active)	2.47 µM (inactive)	1.61 µM (inactive)	1.66 µM (inactive)	1.18 µM (inactive)	0.361 µM (active)	1.87 µM (inactive)	2.29 µM (inactive)	1.71 µM (inactive)	1.82 µM (inactive)	1.87 µM (inactive)	1.71 µM (inactive)	2.06 µM (inactive)	2.08 µM (inactive)	0.71 µM (active)	2.79 µM (inactive)	0.944 µM (active)
COc1ccccc1NC(=O)C1=C(C)NC(C)=C(C(=O)Nc2ccccc2OC)C1c1ccc(C2C(C(=O)Nc3ccccc3OC)=C(C)NC(C)=C2C(=O)Nc2ccccc2OC)cc1	> 27.8 µM (inactive)	–	18 µM (inactive)	1.71 µM (inactive)	1.99 µM (inactive)	2.18 µM (inactive)	1.64 µM (inactive)	1.29 µM (inactive)	1.19 µM (inactive)	2.51 µM (inactive)	3.52 µM (inactive)	3.94 µM (inactive)	2.43 µM (inactive)	2.38 µM (inactive)	2.82 µM (inactive)	1.53 µM (inactive)	13 µM (inactive)	1.86 µM (inactive)	11.5 µM (inactive)	2.52 µM (inactive)
CC1=C2CCCC2=C/C(=N/Nc2ccc([N+](=O)[O-])cc2[N+](=O)[O-])CC1	> 100 µM (inactive)	–	> 100 µM (inactive)	> 100 µM (inactive)	> 100 µM (inactive)	> 100 µM (inactive)	> 100 µM (inactive)	> 100 µM (inactive)	> 100 µM (inactive)	> 100 µM (inactive)	> 100 µM (inactive)	> 100 µM (inactive)	> 100 µM (inactive)	> 100 µM (inactive)	> 100 µM (inactive)	> 100 µM (inactive)	> 100 µM (inactive)	> 100 µM (inactive)	> 100 µM (inactive)	> 100 µM (inactive)
CS(=O)(=O)CSCSSCS(C)(=O)=O	> 100 µM (inactive)	–	37.6 µM (inactive)	> 59.7 µM (inactive)	51.8 µM (inactive)	23.8 µM (inactive)	44.2 µM (inactive)	13.6 µM (inactive)	25.5 µM (inactive)	38.7 µM (inactive)	> 100 µM (inactive)	33 µM (inactive)	20.4 µM (inactive)	17.1 µM (inactive)	26.2 µM (inactive)	18.2 µM (inactive)	> 100 µM (inactive)	16.8 µM (inactive)	> 90.6 µM (inactive)	37.1 µM (inactive)
CCCCCCCCCCCCCCCC(=O)OCC1OC(n2ccc(N)nc2=O)C(O)C1O (stereo not given)	0.601 µM (active)	> 100 µM (inactive)	6.31 µM (inactive)	35.2 µM (inactive)	> 100 µM (inactive)	8.24 µM (inactive)	> 100 µM (inactive)	4.7 µM (inactive)	0.0274 µM (active)	5.28 µM (inactive)	> 100 µM (inactive)	> 100 µM (inactive)	> 87.9 µM (inactive)	> 85.3 µM (inactive)	12.1 µM (inactive)	44.8 µM (inactive)	15.5 µM (inactive)	–	> 96.4 µM (inactive)	21.8 µM (inactive)
CCc1cc(Cc2cc(CC)c(NC(=O)C3=CC(=O)CC(c4ccc(OC)cc4)O3)c(CC)c2Cl)c(Cl)c(CC)c1NC(=O)C1=CC(=O)CC(c2ccc(OC)cc2)O1 (stereo not given)	23.9 µM (inactive)	–	22.1 µM (inactive)	20.2 µM (inactive)	22.4 µM (inactive)	32.1 µM (inactive)	10.5 µM (inactive)	18.1 µM (inactive)	31.8 µM (inactive)	19.1 µM (inactive)	24.8 µM (inactive)	25.2 µM (inactive)	15.5 µM (inactive)	17.9 µM (inactive)	25.9 µM (inactive)	19.8 µM (inactive)	17 µM (inactive)	5.9 µM (inactive)	19.7 µM (inactive)	12.9 µM (inactive)
